Experiments:
Male Sprague-Dawley rats [1] = assay: Urinary nitrate/nitrite (NOx) excretion by Griess reaction; type: in vivo, rat; settings: per mg creatinine, after treatment
Procedure: As a marker of renal NO generation, daily excretion of urinary nitrate/nitrite (NOx) was measured using the Griess reaction (Komers et al., 1994; Miranda et al., 2001). Briefly, 0.5 ml of urine was centrifuged at 10,000 g for 15 minutes, the supernatant removed and diluted fivefold using deionised water. From each sample 50 μl was dispensed into a 96-well plate followed by 50 μl of freshly prepared vanadium chloride solution (0.8 mg/ml in 1M HCl) and immediately followed by 50 μl of Griess reagent (2% sulphanilamide in 1.47M hydrochloric acid) and 0.1% N-(1-aphthyl)ethylenediamine dihydrochloride in deionised water. […] Each sample was assayed in triplicate. Urinary NOx excretion was expressed as μmol/mg creatinine.

[2] = test system: Escherichia coli (ATCC 25922); assay: Bactericidal studies: MIC of gentamicin in presence and absence of aminoguanidine; type: cell-based
Procedure: A standardised E coli (ATCC 25922) was then inoculated into the broth and the lowest concentration of gentamicin to inhibit the growth of the bacterium determined (MIC). Results are expressed in milligrams of gentamicin per litre. Studies were performed in duplicate on two separate occasions by a blinded operator. A clinically significant change was defined as an increase in the MIC by two or more doubling dilutions.

[3] = prospective studies, gentamicin for over 7 days; cited from earlier work
Male Sprague-Dawley rats [4] = assay: Oxidation, lipoxidation and glycation products (AOPP, MDA-linked fluorescence, AGE fluorescence, LMW-AGEs, CML staining)
Procedure: Serum and tissue advanced oxidation products (AOPP) were measured by spectrophotometric methods (Martin-Gallan et al., 2003). This assay largely detects the presence of protein dityrosine modifications (Witko-Sarsat et al., 2003). Briefly, 200 μl of homogenised renal tissue or serum was diluted 1:3 in PBS, 100 μL of 1.16 mol/L potassium iodide (KI, Sigma) were then added to each tube, followed two minutes later by 200 μL of concentrated acetic acid. […] Concentrations of AOPP were expressed as arbitrary units calibrated to a chloramine T standard.
Tissue-linked glycoxidation products were measured, based on tissue fluorescence using a flow injection assay (Wrobel et al., 1998). Briefly, renal tissue was enymatically hydrolysed using proteinase K. The solution was then centrifuged to remove sediment and the aqueous phase injected directly into a water column flowing through a fluorescence detector (Waters 470, Waters USA) and UV detector (Hewlett-Packard, USA) in series. Pentosidine-linked fluorescence was measured at excitation 325 nm with an emission at 385 nm (Meng et al., 2000). The level of lipid peroxidation was estimated by determining the malondialdehyde (MDA)-linked fluorescence (390 nm/emission 460 nm) (Meng et al., 1998). The values of fluorescence were corrected against those of the blanks containing the same concentration of proteinase K and adjusted for the peptide content using the absorbance at 280 nm. The data were expressed in arbitrary units, with […] being given the reference value of 1. Finally, paraffin sections were stained for CML-AGEs

Male Sprague-Dawley rats [5] = assay: Gentamicin nephrotoxicity model: serum and urine biochemistry, renal function, kidney weight after 8 days of treatment
Procedure: Group 1 (Gentamicin): These animals received timed daily subcutaneous injections of gentamicin (50 mg/kg/d) in divided doses, delivered during the resting period, for 8 consecutive days.
Group 3 (Sham): These animals received twice daily subcutaneous injections of equivalent amount of vehicle (0.9% NaCl) according to the same timed protocol for 8 consecutive days.
Kidneys were harvested and blood collections were performed. […] One kidney was immediately removed for histological examination.
(Roche Diagnostics, Basel, Switzerland). […] Gentamicin standards were prepared in normal rat sera.
Serum and urine creatinine were measured by HPLC.

Male Sprague-Dawley rats [6] = assay: Morphological examination of the kidney (PAS, propidium iodide apoptosis, GPX-3 in situ hybridization); type: in vivo, rat
Procedure: Paraffin embedded sections were stained with periodic acid-Schiff (PAS) and examined by light microscopy to determine the extent of gentamicin toxicity (Kopple et al., 2002). In addition, tubular apoptosis was assessed by staining for DNA fragmentation using propidium iodide. Briefly, sections (3 μm) from the same paraffin blocks used for PAS staining were de-paraffinised with xylene and rehydrated, soaked with PBS pH 7.4 and incubated for 10 minutes with propidium iodide 10 μg/ml and RNAse A 100 μg/ml at 37° C. Sections were subsequently washed extensively with PBS, rinsed with distilled water and mounted with an aqueous media (AFT, Behring Diagnostics, Somerville, N.J.). On a fluorescence microscope, renal tissue was identified on bright field and then, using a rhodamine filter set, the normal and apoptotic tubular nuclei were counted. Twenty cortical windows were assessed in each animal. The results were expressed as a mean number of fragmented and condensed nuclei (apoptotic cells) per window. As a marker of proximal tubular injury, renal gene expression of extracellular glutathione peroxidase, GPX-3 (Yazar et al., 2003) was also assessed in paraffin fixed sections by in situ hybridization

Male Sprague-Dawley rats [7] = settings: serum, after treatment
Procedure: Consequently, serum ACE activity was estimated in animals before and after administration of gentamicin using the synthetic ACE-specific substrate, hippuryl-histidyl-leucine (Shihabi and Scaro, 1981). The released product (His-Leu) was fluorimetrically measured after reaction with ophthaldehyde in time-fixed assays. Briefly, 20 μl of 10 times diluted plasma was mixed with 20 μl Hip-His-Leu (final conc.=1 mM) made up to 50 μl with 10 μL of 100 mM Tris-HCl, 300 mM NaCl, pH 8.3. The samples were then mixed and incubated in 37° C. water bath for 30 minutes. To detect the generated His-Leu, 120 μl of 0.3 N NaOH and 10 μl o-phthaldehyde were then added and the samples briefly vortexed and incubated at room temperature for 10 minutes. To terminate the derivitisation reaction, 20 μl of 3N HCl was added and the samples centrifuged for 5 minutes at 15, 000 rpm to remove insoluble residue. The resulting supernatant was transferred to a black 96 well plate and fluorescence read at excitation=355 nm, emission=485 nm in a fmax fluorescence detector (Molecular Biosystems, USA). Results were corrected for blank fluorescence detected in the absence of Hip-His-Leu. Results are expressed as nmol of His-Leu generated per minute of reaction time per ml of plasma (nmol/min/ml).

Male Sprague-Dawley rats [8] = assay: Serum and urine parameters after aminoguanidine pre-treatment but before gentamicin therapy; settings: p<0.05
Procedure: Male Sprague-Dawley rats were randomly assigned to one of three groups:
Group 2 (Gentamicin+aminoguanidine): rats received aminoguanidine 4 g/L in their drinking water for 2 weeks, prior to gentamicin dosing as described above.
Prior to gentamicin dosing and on day 7 of the study, animals were placed individually in metabolic cages and 24 h urine collected and food intake recorded. Blood was collected into heparinised tubes, after being obtained from the tail of each rat, at baseline and on days 2 and 5. The blood samples were always obtained before the daily injections were given, as well as being taken 24 hours following the last injection and at the time of sacrifice. […]
Standard physiological and biochemical parameters including body weight and food and water intake, were measured before and after gentamicin dosing regimens. […] Serum gentamicin was measured in serum by a polarisation fluorescence immunoassay in a TDx analyser (Abbott Diagnostics, Abbott Park, Ill., USA). […] To quantify enzymuria, urinary excretion of alanine transaminase (ALT), aspartate transferase (AST), alkaline phosphatase (AP) and lactate dehydrogenase (LDH) were measured using a Hitachi 747 Automatic Analyser, as above. […] Therefore the urinary excretion of the electrolytes were measured in this experimental protocol and expressed as the fractional excretion (FE), which is calculated as: FEx(%)=(Ux×PCr)/(Px×UCr) […]

[9] = Serum and renal cortical gentamicin levels; type: in vivo, rat
Procedure: (Roche Diagnostics, Basel, Switzerland). […] Gentamicin standards were prepared in normal rat sera. […] To measure the gentamicin concentrations in the renal cortex, the kidney was processed and analysed. The upper pole of the vertically divided right kidney was removed and snap-frozen at minus 80° C. until use. […] After centrifugation, a 100 μl aliquot of the supernatant was used immediately for gentamicin determination by HPLC. […] Fluorescence detection was set at excitation 340 nm, emission 418 nm. The […] gentamicin peak was used to quantify the total gentamicin content. Calibration curves of the components were prepared in a drugfree supernatant of the renal homogenates and were linear over the concentration range 50-500 μg/ml. […] Renal cortical gentamicin concentrations were expressed per milligram of renal cortical protein.

[10] = cited from earlier work
[11] = following 8-days of treatment, Mean ± SEM
[12] = serum, following 8-days of treatment, Mean ± SEM

SMILES: CNC(C)C1CCC(N)C(OC2C(N)CC(N)C(OC3OCC(C)(O)C(NC)C3O)C2O)O1 (stereo not drawn) [Gentamicin, gentamicin]
- Urine NOx (Male Sprague-Dawley rats [1]): 4.1 ± 0.4 µmol/mg
- MIC for gentamicin ([2]; in the absence of aminoguanidine): 0.2 mg/L
- MIC for gentamicin ([2]; in the presence of aminoguanidine at 10 μg/ml): 0.3 mg/L
- MIC for gentamicin ([2]; in the presence of aminoguanidine at 100 μg/ml): 0.2 mg/L
- MIC for gentamicin ([2]; in the presence of aminoguanidine at 1 mg/ml): 0.5 mg/L
- Patients showing signs of nephrotoxicity [3]: up to 50%
- Staining for CML-AGE in kidney (Male Sprague-Dawley rats [4]; FIG. 7, aminoguanidine group also received gentamicin): substantially increased
- Serum AOPPs (Male Sprague-Dawley rats [4]; FIG. 8): elevated to approximately the same extent
- Serum MDA-linked fluorescence (Male Sprague-Dawley rats [4]; FIG. 8, compared to sham animals or those receiving aminoguanidine): elevated
- Circulating levels of LMW-AGEs (Male Sprague-Dawley rats [4]; after 8 days, aminoguanidine group also received gentamicin): elevated to over twice the level seen in untreated animals
- Cortical AGE-fluorescence (Male Sprague-Dawley rats [4]; arbitrary units, untreated 1.0±0.3, p=NS): 1.2±0.3
- Normalised kidney weight (Male Sprague-Dawley rats [5]; FIG. 2, aminoguanidine group also received gentamicin): significantly higher
- Renal blood flow as estimated by the clearance of endogenous hippurate (Male Sprague-Dawley rats [5]; after 8 days gentamicin, aminoguanidine group also received gentamicin): 8.1 ± 1.1 mL/min
- Urine Volume (Male Sprague-Dawley rats [5]; following 8-days of treatment, gentamicin 50 mg/kg/d s.c., Mean ± SEM): 29 ± 6 mL/day
- FeCa (Male Sprague-Dawley rats [5]; [11]): 6 ± 3%
- FeK (Male Sprague-Dawley rats [5]; [11]): 70 ± 20 %
- FeMg (Male Sprague-Dawley rats [5]; [11]): 21 ± 5 %
- Urine ALT (Male Sprague-Dawley rats [5]; [11]): 10.5 ± 4.6 U/ml
- Urine AP (Male Sprague-Dawley rats [5]; [11]): 119 ± 29 U/ml
- Urine AST (Male Sprague-Dawley rats [5]; [11]): 147 ± 62 U/ml
- Urine LDH (Male Sprague-Dawley rats [5]; [11]): 489 ± 100 U/ml
- Creatinine clearance (Male Sprague-Dawley rats [5]; following 8-days of treatment, Mean ± SEM, none in table head): 1.3 ± 0.3 mL/min
- Fall in creatinine clearance compared to untreated animals (Male Sprague-Dawley rats [5]; gentamicin alone, 8 days): greater than 50%
- Serum LDH (Male Sprague-Dawley rats [5]; marker of renal injury, after treatment): 380 ± 76 IU/ml
- Creatinine (Male Sprague-Dawley rats [5]; [12]): 122 ± 55 µM
- Urea (Male Sprague-Dawley rats [5]; [12]): 20.1 ± 5.6 mM
- Tubular necrosis (PAS histology of renal cortex) (Male Sprague-Dawley rats [6]; FIG. 3, after 8 days of treatment): extensive and marked tubular necrosis
- Tubular expression of glutathione peroxidase-3 (Male Sprague-Dawley rats [6]; FIG. 4, in situ hybridization, aminoguanidine group also received gentamicin): significantly reduced
- Fragmented and condensed nuclei (apoptotic cells) per field (Male Sprague-Dawley rats [6]; tubular nuclei, propidium iodide, aminoguanidine group also received gentamicin): 12±2 per field
- ACE activity (Male Sprague-Dawley rats [7]): 5.1 ± 0.4 nmol/mL/min

SMILES: N=C(N)NN [aminoguanidine]
- Urinary potassium excretion (Male Sprague-Dawley rats [8]): reduced
- Staining for CML-AGE in kidney (Male Sprague-Dawley rats [4]; rat, in vivo): able to reduce staining for CML-AGE
- Normalised kidney weight (Male Sprague-Dawley rats [5]; rat, in vivo): reduced the renal weight
- Renal blood flow as estimated by the clearance of endogenous hippurate (Male Sprague-Dawley rats [5]; rat, in vivo): 12.1 ± 1.1 mL/min
- Fragmented and condensed nuclei (apoptotic cells) per field (Male Sprague-Dawley rats [6]; rat, in vivo): 1-2 per field
- Tubular expression of glutathione peroxidase-3 (Male Sprague-Dawley rats [6]; rat, in vivo): not significantly changed
- Reduction of gentamicin content of the renal cortex ([9]; FIG. 5, after 8 days, aminoguanidine co-administered with gentamicin, vs gentamicin alone, p<0.001): approximately two thirds
- Serum gentamicin levels at day 2 and day 5 ([9]; effect of co-administration of aminoguanidine): unaffected
- Half life [10]: 4 h
